# In patent US5891882A, “Benzopyranopyrrole and benzopyranopyridine α-1 adenergic compounds” (priority 1997, dated 1999):
# Where a name gives a salt, the structure may show the parent alone.
# Biological target: T1, α-1A adrenoreceptor (canine prostate smooth muscle) (Canis lupus, UniProt A0A8I3NK63)
# T1 construct: antagonism of phenylephrine-induced contraction (pA2, Schild)
# T1 sequence (A0A8I3NK63 1-466): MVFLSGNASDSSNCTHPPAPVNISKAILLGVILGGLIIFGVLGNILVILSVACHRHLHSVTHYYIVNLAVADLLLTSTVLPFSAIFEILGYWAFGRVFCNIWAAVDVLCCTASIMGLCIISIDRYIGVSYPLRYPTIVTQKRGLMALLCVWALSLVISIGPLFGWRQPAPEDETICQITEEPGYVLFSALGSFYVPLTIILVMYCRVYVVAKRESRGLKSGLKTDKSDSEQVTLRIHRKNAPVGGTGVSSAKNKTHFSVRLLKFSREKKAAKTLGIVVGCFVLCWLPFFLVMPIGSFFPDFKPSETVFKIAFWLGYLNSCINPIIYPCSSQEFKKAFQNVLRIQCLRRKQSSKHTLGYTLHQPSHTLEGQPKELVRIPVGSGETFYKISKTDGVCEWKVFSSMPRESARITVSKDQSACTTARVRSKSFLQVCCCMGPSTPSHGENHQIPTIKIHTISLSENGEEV
# Assay: Functional antagonism: inhibition of phenylephrine-induced contraction of canine prostate strips
# Format: cell-based
# Details: Schild plot
# Excerpt: Canine prostate strips were used in vitro as previously described (Hieble, J. P., Boyce, Caine, M., Fed Proc., 45: 2609-2614 (1986)), to determine antagonist potencies phenylephrine-induced contractions.
# (§1) Functional assays indicative of pharmacologically defined α-1 adrenoreceptors were used to further characterize compounds. Inhibition of phenylephrine (PE)-induced contraction of canine prostate smooth muscle can be correlated with α-1A adrenoreceptor activation. […] For each of these models, agonist dose response curves were repeated against increasing concentrations of test agent to derive a Schild plot [log ([…]) against log (molarity of test agent)] to determine the pA2.
# Canine prostate strips were used in vitro as previously described (Hieble, J. P., Boyce, A. J. and Caine, M., Fed. Proc., 45: 2609-2614 (1986)), to determine antagonist potencies against phenylephrine-induced contractions.
row,SMILES,In Vitro Characterization (pA2) Dog Prostate
1,"COc1ccc2c(c1)OC[C@H]1CN(CCn3c(=O)[nH]c4c(sc5ccccc54)c3=O)C[C@@H]21.Cl (racemic) [Example 63, 3-[2-((±)-cis-7-Methoxy-1,2,3,3a,4,9b-hexahydro-[1]-benzopyrano[3,4-c]pyrrol-2-yl)ethyl]-[1]benzthieno[3,2-d]pyrimidine-2,4(1H,3H)-dione hydrochloride]",6.65
2,"COc1cccc2c1[C@@H]1CN(CCCCn3c(=O)[nH]c4c(sc5cccnc54)c3=O)C[C@H]1CO2 [Example 3, 3-[4-((3aS,9bR)-trans-9-Methoxy-1,2,3,3a,4,9b-hexahydro-[1]-benzopyrano[3,4-c]pyrrol-2-yl)butyl]-pyrido[2',3':4,5]thieno[3,2-d]pyrimidine-2,4(1H,3H)-dione hydrochloride]",9.43
3,"COc1ccc2sc3c(=O)n(CCCCN4C[C@H]5COc6cccc(OC)c6[C@@H]5C4)c(=O)[nH]c3c2n1 [Example 26, 3-[4-((3aS,9bR)-trans-9-Methoxy-1,2,3,3a,4,9b-hexahydro-[1]-benzopyrano[3,4-c]pyrrol-2-yl)butyl]-8-methoxy-pyrido[2',3':4,5]thieno[3,2-d]pyrimidine-2,4(1H,3H)-dione dihydrochloride]",9.15
4,"COc1cccc2c1[C@@H]1CN(CCCCn3c(=O)[nH]c4c(sc5cccnc54)c3=O)C[C@@H]1CO2 [Example 1, 3-[4-((3aR,9bR)-cis-9-Methoxy-1,2,3,3a,4,9b-hexahydro-[1]-benzopyrano[3,4-c]pyrrol-2-yl)butyl]-pyrido[2',3':4,5]thieno[3,2-d]pyrimidine-2,4(1H,3H)-dione hydrochloride]",8.69
5,"COc1cccc2c1[C@H]1CN(CCCCn3c(=O)[nH]c4c(sc5cccnc54)c3=O)C[C@H]1CO2 [Example 2, 3-[4-((3aS,9bS)-cis-9-Methoxy-1,2,3,3a,4,9b-hexahydro-[1]-benzopyrano[3,4-c]pyrrol-2-yl)butyl]-pyrido[2',3':4,5]thieno[3,2-d]pyrimidine-2,4(1H,3H)-dione hydrochloride]",7.95
6,"COc1cccc2c1[C@@H]1CCN(CCCCn3c(=O)[nH]c4c(sc5cccnc54)c3=O)C[C@H]1CO2 [Example 95, 3-[4-((4aS,10bR)-trans-10-Methoxy-1,3,4,4a,5,10b-hexahydro-2H-[1]-benzopyrano[3,4-c]pyrido-3-yl)butyl]-pyrido[2',3':4,5]thieno[3,2-d]pyrimidine-2,4(1H,3H)-dione dihydrochloride]",8.58
7,"COc1cccc2c1[C@@H]1CN(CCCCn3c(=O)[nH]c4c(sc5ncc(Cl)nc54)c3=O)C[C@H]1CO2 [Example 13, 3-[4((3aS,9bR)-trans-9-Methoxy-1,2,3,3a,4,9b-hexahydro-[1]-benzopyrano[3,4-c]pyrrol-2-yl)butyl]-8-chloro-pyrazino[2',3':4,5]thieno[3,2-d]pyrimidine-2,4(1H,3H)-dione hydrochloride]",9.91

# Further lines, results first:
row,In Vitro Characterization (pA2) Dog Prostate,SMILES
1,9.03,"COc1cccc2c1[C@H]1CN(CCCCn3c(=O)[nH]c4c(sc5nccnc54)c3=O)C[C@@H]1CO2.Cl.Cl (racemic) [Example 74, 3-[4-((±)-trans-9-Methoxy-1,2,3,3a,4,9b-hexahydro-[1]-benzopyrano[3,4-c]pyrrol-2-yl)butyl]-pyrazino[2',3':4,5]thieno[3,2-d]pyrimidine-2,4(1H,3H)-dione dihydrochloride]"
2,6.91,"Cl.O=c1[nH]c2c(sc3ccccc32)c(=O)n1CCN1C[C@@H]2COc3ccccc3[C@@H]2C1 (racemic) [Example 69, 3-[2-((±)-cis-1,2,3,3a,4,9b-hexahydro-[1]-benzopyrano[3,4-c]pyrrol-2-yl)ethyl]-[1]-benzthieno[3,2-d]pyrimidine-2,4(1H,3H)-dione hydrochloride]"
3,7.76,"COc1cccc2c1[C@@H]1CN(CCn3c(=O)[nH]c4c(sc5ccccc54)c3=O)C[C@@H]1CO2.Cl (racemic) [Example 65, 3-[2-((±)-cis-9-Methoxy-1,2,3,3a,4,9b-hexahydro-[1]-benzopyrano[3,4-c]pyrrol-2-yl)ethyl]-[1]-benzthieno[3,2-d]pyrimidine-2,4(1H,3H)-dione hydrochloride]"
4,8.6,"COc1cccc2c1[C@@H]1CCN(CCCCn3c(=O)[nH]c4c(sc5ncc(Cl)nc54)c3=O)C[C@H]1CO2 [Example 97, 3-[4-((4aS,10bR)-trans-10-Methoxy-1,3,4,4a,5,10b-hexahydro-2H-[1]-benzopyrano[3,4-c]pyrido-3-yl)butyl]-8-chloro-pyrazino[2',3':4,5]thieno[3,2-d]pyrimidine-2,4(1H,3H)-dione dihydrochloride]"
5,8.6,"COc1cccc2c1[C@@H]1CCN(CCCCn3c(=O)[nH]c4c(sc5ncccc54)c3=O)C[C@H]1CO2 (relative stereo) [Example 85, 3-[4-((±)-trans-10-Methoxy-1,3,4,4a,5,10b-hexahydro-2H-[1]-benzopyrano[3,4-c]pyrido-3-yl)butyl]-pyrido[3',2':4,5]thieno[3,2-d]pyrimidine-2,4(1H,3H)-dione dihydrochloride]"
6,6.92,COc1ccc2c(c1)OC[C@H]1CN(CCCn3c(=O)[nH]c4c(sc5ccccc54)c3=O)C[C@@H]21.Cl (racemic) [Example 64]
7,7.02,"COc1cccc2c1OC[C@H]1CN(CCCn3c(=O)[nH]c4c(sc5ccccc54)c3=O)C[C@@H]21.Cl (racemic) [Example 68, 3-[3-((±)-cis-6-Methoxy-1,2,3,3a,4,9b-hexahydro-[1]-benzopyrano[3,4-c]pyrrol-2-yl)propyl]-[1]-benzthieno[3,2-d]pyrimidine-2,4(1H,3H)-dione hydrochloride]"
8,7.48,"COc1cccc2c1[C@@H]1CN(CCCn3c(=O)[nH]c4c(sc5ccccc54)c3=O)C[C@@H]1CO2.Cl (racemic) [Example 66, 3-[3-((±)-cis-9-Methoxy-1,2,3,3a,4,9b-hexahydro-[1]-benzopyrano[3,4-c]pyrrol-2-yl)propyl]-[1]-benzthieno[3,2-d]pyrimidine-2,4(1H,3H)-dione hydrochloride]"

# Biological target: T2, α-1 Adrenoceptors (Rat Aorta) (Rattus norvegicus, UniProt P23944)
# T2 construct: Rat Aorta; from tissue; host or cells: rat aorta
# T2 sequence (P23944 1-561): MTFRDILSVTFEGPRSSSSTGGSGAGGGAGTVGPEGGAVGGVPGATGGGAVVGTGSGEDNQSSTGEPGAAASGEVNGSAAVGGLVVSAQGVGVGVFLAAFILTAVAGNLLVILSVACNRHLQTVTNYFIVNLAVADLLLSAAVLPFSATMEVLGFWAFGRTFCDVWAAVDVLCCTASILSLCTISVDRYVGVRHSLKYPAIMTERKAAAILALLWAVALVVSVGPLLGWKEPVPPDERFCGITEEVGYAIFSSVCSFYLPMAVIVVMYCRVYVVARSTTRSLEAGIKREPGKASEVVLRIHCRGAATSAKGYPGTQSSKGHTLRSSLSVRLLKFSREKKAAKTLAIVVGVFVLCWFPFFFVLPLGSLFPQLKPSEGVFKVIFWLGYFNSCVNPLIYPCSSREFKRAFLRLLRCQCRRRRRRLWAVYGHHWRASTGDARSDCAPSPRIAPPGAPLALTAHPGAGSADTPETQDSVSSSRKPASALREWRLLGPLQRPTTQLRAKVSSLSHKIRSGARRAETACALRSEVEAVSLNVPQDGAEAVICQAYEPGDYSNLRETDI
# Assay: Functional antagonism at α-1 adrenoceptors, rat aorta
# Format: cell-based
# Details: read-out: In Vitro Characterization (pA2) Rat Aorta (converted)
# Excerpt: as §1
row,SMILES,Kb
1,"COc1ccc2sc3c(=O)n(CCCCN4C[C@H]5COc6cccc(OC)c6[C@@H]5C4)c(=O)[nH]c3c2n1 [Example 26, 3-[4-((3aS,9bR)-trans-9-Methoxy-1,2,3,3a,4,9b-hexahydro-[1]-benzopyrano[3,4-c]pyrrol-2-yl)butyl]-8-methoxy-pyrido[2',3':4,5]thieno[3,2-d]pyrimidine-2,4(1H,3H)-dione dihydrochloride]",0.0661 nM
2,"COc1cccc2c1[C@@H]1CN(CCCCn3c(=O)[nH]c4c(sc5ncc(Cl)nc54)c3=O)C[C@H]1CO2 [Example 13, 3-[4((3aS,9bR)-trans-9-Methoxy-1,2,3,3a,4,9b-hexahydro-[1]-benzopyrano[3,4-c]pyrrol-2-yl)butyl]-8-chloro-pyrazino[2',3':4,5]thieno[3,2-d]pyrimidine-2,4(1H,3H)-dione hydrochloride]",0.0407 nM
